Data: article PMC7023232, “Polymer Cancerostatics Containing Cell-Penetrating Peptides: Internalization Efficacy Depends on Peptide Type and Spacer Length” (Pharmaceutics, 2020)
Like-named read-outs stand apart in the source and are kept apart here.

What was measured:
Assay type in all cases: cell-based, human
HeLa cells [1] = assay: Alamar Blue cell viability (cytotoxicity)
Procedure: Cytotoxicity of polymer–peptide conjugates was determined using Alamar Blue® cell viability reagent (Thermo Fischer Scientific, Czech Republic) in HeLa cells according to the manufacturer’s protocol. Cells were seeded into 96-well plates in 100 μL of DMEM 24 h prior to experiment at a density of 5 × 10^3 cells per well. […] […] Then the medium was replaced by 90 μL of fresh medium with 10 μL of Alamar Blue® reagent and incubated for the next 4 h in 5% CO2 at 37 °C. […] The fluorescence intensity was measured using a Synergy Neo plate reader (Bio-Tek, Prague, Czech Republic) with excitation at 550 nm and emission at 590 nm. Non-treated cells were used as a negative control and free pirarubicin as a positive control. All samples were measured in triplicate in three independent experiments. The half maximal inhibitory concentration value IC50 was expressed as a concentration of CPP ± SD and pirarubicin ± SD, respectively. […] In the case of drug bearing polymer conjugates, the concentration varied from 43.2 nM to 44.3 μM of pirarubicin.
Results were plotted as average ± standard deviation (SD). All statistical analysis was performed using GraphPad Prism 5.03. An ANOVA test was followed by Dunnett’s or Turkey’s test. A value of *** p < 0.001, ** p < 0.01, and * p < 0.05 was considered statistically significant. All IC50 (the concentrations of the CPP or drug reducing the cell viability to one half) values were obtained from calculations corresponding to fitting by logistic S-curves.

HeLa cells [2] = assay: Flow cytometry of cellular uptake of fluorescently labeled polymer–peptide conjugates (median fluorescence intensity relative to control polymer REF); conditions: for internalization efficiency compared with the control polymer: HeLa cells, flow cytometry, concentration and temperature not stated at this place (abstract); for uptake relative to control polymer at the highest concentration: highest concentration used; for cell penetration compared with control polymer (in words): any of the concentrations used, at 4 °C and at 37 °C
Procedure: The HeLa cell line (LGC Standards, Poland) was cultured in Dulbecco’s modified Eagle medium (DMEM) supplemented with 100 U of penicillin, 100 μg⋅mL^−1 streptomycin, and 10% fetal bovine serum in 25 cm^2 flasks. Cells were cultivated in a humidified incubator at 37 °C with 5% CO2. The chemicals were purchased from Life Technologies/Gibco, Prague, Czech Republic.
The HeLa cell line was incubated with fluorescently labeled polymer–peptide conjugates for 1 h at 4 °C and 37 °C. For measurement at 4 °C, HeLa cells were harvested with 0.05% trypsin (Thermo Fisher Scientific, Czech Republic) at 37 °C for 3 min. Subsequently, cells were washed with 0.5% bovine serum albumin in phosphate buffered saline (0.01 M) (BSA/PBS), pre-cooled for 15 min and incubated with fluorescently labeled polymer–peptide conjugates in the dark for 1 h at 4 °C. After incubation, the cells were washed once with BSA/PBS, centrifuged at 1500 rpm for 3 min and re-suspended in 1 μM Sytox Blue Dead Cell Stain (Thermo Fisher Scientific, Czech Republic) to distinguish live and dead cells. For measurement at 37 °C, HeLa cells were seeded 24 h prior to the experiment on 24-well plates at a density 1.5 × 10^5 cells per well. Polymer–peptide conjugates were then added together with fresh DMEM and incubated at 37 °C in 5% CO2 and humidified atmosphere. Subsequently, cells were washed with BSA/PBS, harvested with 0.05% trypsin at 37 °C for 3 min, transferred to tubes, centrifuged at 1500 rpm for 3 min, and re-suspended in PBS/BSA containing 1 μM Sytox Blue Dead Cell Stain (Thermo Fisher Scientific, Czech Republic). All measurements were acquired using a FACSVerse™ flow cytometer (Becton Dickinson Czechia, s.r.o., Prague, Czech Republic) and analyzed by FlowJo software version 10 (Tree Star Inc., Ashland, OR, USA); the median of fluorescence intensity was determined. The concentration of polymer conjugates was adjusted to the value corresponding to a final concentration of peptide 1000 μM. This stock solution was diluted with PBS to obtain all used concentrations. […] HeLa cells without a polymer were used as a negative control. All samples were measured in duplicates in two independent experiments.
The uptake of the polymer–peptide conjugates incubated with the cells was measured using flow cytometry.

HeLa cells [3] = assay: Laser scanning confocal microscopy of intracellular uptake and localization
Procedure: Laser scanning confocal microscopy (LSCM) was used to visualize the intracellular uptake of selected polymer conjugates. HeLa cells were seeded 24 h prior to an experiment (1.5 × 10^5 cells per well) to confocal chambers (1 μ-dishes providing a 35 mm^2 growth area with 500 μL cell culture medium) with four chambers in a 20 mm micro-well and a #1 cover glass (0.13–0.16 mm) (Bio-Port Europe, Prague, Czech Republic). Medium was replaced by fresh medium with dissolved polymer–peptide conjugates and added to confocal chamber and incubated either at 4 °C or at 37 °C for 1 h. After the incubation time, cells were washed twice with PBS and measured by confocal microscopy. Hoechst 33342 was used for visualization of cell nuclei (5 μg·mL^−1, Thermo Fischer Scientific, Czech Republic) and cell membranes were stained with CellMask™ Green (1 μg⋅mL^−1, Thermo Fisher Scientific, Czech Republic) for 1 h before imaging at 4 °C or 10 min at 37 °C. Observation of samples was performed by Olympus IX83 coupled with FV10-ASW software (Olympus, Prague, Czech Republic). The samples were scanned using the 60× oil objective Plan ApoN (1.42 numerical apertures). Dy633-labeled polymers were excited at 637 nm and emitted light was detected through a 650–750 nm filter. For the detection of Hoechst 33342 dye-stained nuclei, an excitation wavelength of 405 nm was used and emitted light was detected through a 420–500 nm filter. CellMask Green-stained cell membranes were excited at 488 nm and the emitted light was detected through a 500–600 nm filter. All samples were measured in duplicate in two independent experiments.
A confocal microscopy study was performed to support and extend the data obtained by flow cytometry. Confocal microscopy imaging was used to map localization of CPP conjugates. The polymer conjugates with the highest cell penetration activity, TAT12 and PEN12, were selected for the confocal microscopy experiments. Conjugate REF was used as a control. The polymers were incubated with HeLa cells for 1, 2, or 4 h at 4 or 37 °C.

[4] = 24 h incubation, Alamar Blue, Dy633-labeled conjugates, mean ± SD, triplicate in three independent experiments, for REF virtual CPP concentration of the same weight concentration, read-out: IC50 (concentration of the CPP reducing the cell viability to one half)
[5] = 4 °C (cells precooled 15 min), 50 μM of CPP, up to 4 h
[6] = 37 °C, 50 μM of CPP, 1, 2 or 4 h

With `COc1cccc2c1C(=O)c1c(O)c3c(c(O)c1C2=O)C[C@@](O)(C(=O)CO)C[C@@H]3O[C@H]1C[C@H](N)[C@H](O[C@@H]2CCCCO2)[C@H](C)O1` [Pir, Pirarubicin, reference compound] the IC50 (HeLa cells [1]; Homo sapiens, 24 h incubation, Alamar Blue, expressed as pirarubicin, mean ± SD, triplicate in three independent experiments, read-out: IC50 (concentration of the Pir reducing the cell viability to one half)) was 1.03 ± 0.3 µg/mL.
“GRKKRRQRRR [P-T12-Pir, HPMA copolymer bearing pirarubicin via GFLG and TAT via dodeca(ethylene glycol) spacer]” was tested, and the “IC50 lower compared with P-Pir conjugate without any CPP” value (HeLa cells [1]; 24 h incubation) was “more than two”, the “IC50 (concentration of the Pir reducing the cell viability to one half)” value (HeLa cells [1]; 24 h incubation, Alamar Blue, expressed as pirarubicin, mean ± SD, triplicate in three independent experiments) was 18.3 ± 6.2 µg/mL and the IC50 (HeLa cells [1]; 24 h incubation, read-out: concentration of CPP present on the conjugate at IC50 value) was ~20.7 µM. The “cytotoxicity (IC50 as pirarubicin) after longer incubation time” value (HeLa cells [1]; 72 h incubation, Alamar Blue) was 11.1 ± 1.6 µg/mL.
GRKKRRQRRR [TAT4] was tested, and the “internalization efficiency compared with the control polymer” value (HeLa cells [2]) was “about 40 times”, the “cell penetration level compared with REF” value (HeLa cells [2]; HeLa, 4 °C, 1 h, 1 μM of CPP) was “seven” and the “enhanced cellular uptake (relative fluorescence intensity) compared to REF” value (HeLa cells [2]; HeLa, 37 °C, 1 h, 0.1 μM of CPP) was 14 times. It also gave an IC50 (HeLa cells [1]; [4]) of 95.3 ± 2.6 µM.
In the case of GRKKRRQRRR [TAT12], the “penetration efficacy relative to spacer-free conjugate TAT0” value (HeLa cells [2]; HeLa, 4 °C, 1 h, 50 μM of CPP) is reported as 2.8 times, the “cellular localization / internalization by confocal microscopy (in words)” value (from here on “cellular localization / internalization”) (HeLa cells [3]; [5]) is reported as “partially localized even in the cytosol” and the “cellular localization / internalization” value (HeLa cells [3]; [6]) is reported as “localized in cytosol already after 1 h”. For the same molecule, the “presence of the polymer in the cell nuclei (in words)” value (HeLa cells [3]; [6]) was “negligible”.
For PFVYLI [PF4], the “increase in uptake relative to REF” value (HeLa cells [2]; HeLa, 4 °C (precooled cells), 1 h, median fluorescence intensity ratio to REF) was “up to 2 times”, the “uptake relative to control polymer at the highest concentration” value (HeLa cells [2]; HeLa, 4 °C, 1 h) was 1.8 times and the “uptake relative to control polymer at the highest concentration” value (HeLa cells [2]; HeLa, 37 °C, 1 h) was 1.8 times.
With RRMKWKK [PEN4] the “internalization efficiency compared with the control polymer” value (HeLa cells [2]) was ~15 times, the “effect of tetra(ethylene glycol) spacer on penetration compared with spacer-free PEN0 (in words)” value (HeLa cells [2]; HeLa, 4 °C, 1 h) was “not long enough to improve the penetration” and the “uptake compared with TAT4 (in words)” value (HeLa cells [2]; HeLa, 4 °C, 1 h, 1 and 10 μM of CPP) was “slightly outperformed TAT4”. The “concentration dependence of relative uptake (in words)” value (HeLa cells [2]; HeLa, 4 °C, 1 h, 25 and 50 μM of CPP) was “did not exhibit any more improvement”, the “relative increase of fluorescence intensity compared to REF, versus TAT4 (in words)” value (HeLa cells [2]; HeLa, 37 °C, 1 h, all measured concentrations) was “lower than in the case of TAT4” and the IC50 (HeLa cells [1]; [4]) was 82.9 ± 4.8 µM.
For RRMKWKK [PEN12], the “penetration efficacy relative to shorter analog PEN4” value (HeLa cells [2]; HeLa, 4 °C, 1 h, 25 μM of CPP) was “two”, the “cellular localization / internalization” value (HeLa cells [3]; [5]) was “much less pronounced at 4 °C” and the “cellular localization / internalization” value (HeLa cells [3]; [6]) was “lower cell internalization compared with TAT12”.
RYIRS [RY4] was tested, and the “cell penetration compared with control polymer (in words)” value (HeLa cells [2]; HeLa, 1 h) was “do not penetrate cells better than the control polymer”.
VPMLK [VP4] was tested, and the “cell penetration compared with control polymer (in words)” value (HeLa cells [2]; HeLa, 1 h) was “do not penetrate cells better than the control polymer”.
For YARAAARQARA [YA4], the “cell penetration compared with control polymer (in words)” value (HeLa cells [2]; HeLa, 1 h) was “do not penetrate cells better than the control polymer”.
